# Assay results taken from patent US20130165368A1, “ANTIMICROBIAL COMPOUNDS” (priority 2010, published 2013).
# Where two headings read alike, the source gives them in different places.
# Assays:
# Format in all cases: cell-based
# Staphylococcus aureus = assay: MIC agar dilution, micro-organism 13 (6571); conditions: Staphylococcus aureus 6571
# Summary of the method: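 Agar dilution in Isosensitest/CCEY agar with egg yolk and lysed horse blood; compounds as aqueous emulsions (myristyl and lauryl alcohol with 1-methyl-2-pyrrolidone and Tween 20). 1 µL spots of 1/15-diluted 0.5 McFarland suspensions, 37 °C aerobic, read at 22 and 48 h; MIC (mmol/L) is lowest concentration giving <10 colonies.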
# [1] = test system: Enterococcus faecalis (VRE) MB 1969; assay: MIC agar dilution, VRE strain 27
# Method: (§1) Molar equivalent concentrations were used to allow comparison between compounds of differing molecular mass. Due to weighing difficulties, any compound in solid form was melted in a water bath prior to dilution. To make ten-times strength concentrations, which takes into account agar dilution, 0.0352 mmol of each compound was weighed into plastic universal bottles and 4 mL of sterile distilled water (SDW) was added. To produce a homogenous emulsion the universals were vortexed; once achieved the emulsions were serial diluted by adding 2 mL to 2 mL of SDW.
# (§2) For every 100 mL of Isosensitest agar (IST) (CM0471; Oxoid, Basingstoke, England), 3.1 g of the IST powder was added to 100 mL SDW (as per manufacturer's instructions) and sterilised for 15 minutes at 121° C. Once sterilised, the molten agar was cooled to 50° C. in a water-bath. Subsequently 4.8 g of CCEY powder (BC2160; Bioconnections, Wetherby, England), also known as Brazier's medium, was added to 100 mL SDW for every 100 mL of agar needed. This was then sterilised for 15 minutes at 121° C. Once sterilised the molten agar was cooled to 50° C. in a water-bath and 4 mL of egg-yolk emulsion (S2073; TCS Biosciences Ltd, Buckingham, United Kingdom) and 1 mL of lysed defibrinated horse blood (HB035; TCS Biosciences Ltd, Buckingham, United Kingdom) were also added for every 100 mL needed. Horse blood lysis is achieved by dilution to half concentration with SDW; when fully lysed the mixture will turn dark red in colour.
# (§3) 18 mL agar was added to each universal and then poured into sterile Petri dishes. This step creates a 1/10 dilution resulting in agar plates of the required strength. Control plates for each set of strains were created by adding 18 mL of agar to 2 mL of SDW.
# (§4) Suspensions of each bacterial species were prepared with a density equal to that of a 0.5 McFarland standard using a densitometer. All suspensions were made using sterile distilled water and fresh 18-20 hour cultures. As a 0.5 McFarland standard contains 1.5×10^8 CFU/mL and the multipoint inoculators applies 1 μL spots of liquid, each bacterial suspension was diluted 1/15 (20 μL suspension to 280 μL sterile distilled water).
# (§5) Bacterial suspensions were prepared from fresh 18-24 hour cultures as previously described. 1 μL of each strain was inoculated onto all 100 agar plates containing a different chemical concentration and the 2 control plates. This was done using a multipoint inoculator which inoculates 20 strains per plate. All plates were incubated for 22 hours at 37° C. in aerobic conditions.
# (§6) Each plate was examined for bacterial growth after 22 and 48 hours, with each being incubated in between examinations. A positive result was recorded as growth of ≧10 colonies. A negative result was recorded as growth of <10 colonies as this is equivalent to 99.9% inhibition. The lowest concentration of chemical that inhibited growth was recorded as the MIC. The results are recorded in Table IV below, where the numbers are quoted in mmol/L.
# (§7) Given the positive performance of the ethoxylates of lauryl alcohol in reducing the MIC for a number of the micro-organisms tested, further MIC testing of Laureth-1 [C12E1] through to Laureth-8 [C12E8] was conducted on each of the following: • 10 strains of vancomycin-resistant enterococci (VRE)—listed in Table V below; and • 20 strains of methicillin-resistant Staphylococcus aureus (MRSA)—listed in Table VI.
# (§8) The alkanol, alkanol derivatives, agar plates, and inocula were all prepared in the same way as described above.
# (§9) The plates were examined in the same manner as described above and the results are recorded in Table VII below, where the numbers are quoted in mmol/L.
# [2] = test system: Enterococcus faecalis (VRE) MB 726; assay: MIC agar dilution, VRE strain 28
# Method: as §1, §2, §3, §4, §5, §6, §7, §8, §9
# MRSA EMRSA 15 21268/98 = assay: MIC agar dilution, MRSA strain 40; conditions: Staphylococcus aureus
# Method: as §1, §2, §3, §4, §5, §6, §7, §8, §9
# MRSA EMRSA 16 03732/95 = assay: MIC agar dilution, MRSA strain 45; conditions: Staphylococcus aureus
# Method: as §1, §2, §3, §4, §5, §6, §7, §8, §9
# MRSA EMRSA 16 00036/95 = assay: MIC agar dilution, MRSA strain 46; conditions: Staphylococcus aureus
# Method: as §1, §2, §3, §4, §5, §6, §7, §8, §9
# MRSA EMRSA 16 00998/95 = assay: MIC agar dilution, MRSA strain 47; conditions: Staphylococcus aureus
# Method: as §1, §2, §3, §4, §5, §6, §7, §8, §9
# MRSA EMRSA 16 18200/95 = assay: MIC agar dilution, MRSA strain 48; conditions: Staphylococcus aureus
# Method: as §1, §2, §3, §4, §5, §6, §7, §8, §9
# [3] = test system: vancomycin-resistant enterococci (VRE); assay: MIC agar dilution, summary over 10 VRE strains; conditions: Enterococcus; most, if not all, of the VRE samples
# Method: as §7, §8, §9
# Gram-negative species = assay: Additional antibacterial data, MIC (Table XII); conditions: 24 hrs at 37° C.; for MIC (%) volume/volume: inoculum 10000 cfu/spot
# Method: Using the protocols outlined in the example above, the inventors further investigated the antibacterial effects of representative alkoxylated alkanol compounds. The inoculum was 10000 cfu/spot; inclubation was for 24 hrs at 37° C.
# [4] = test system: methicillin-resistant Staphylococcus aureus (MRSA); assay: MIC agar dilution, summary over 20 MRSA strains; conditions: MRSA bacterial samples, 22 and 48 hour
# Method: as §7, §8, §9
# [5] = Staphylococcus aureus, 22 h, 22 hrs, read-out: MIC
# [6] = Staphylococcus aureus, 48 h, 48 hrs, read-out: MIC
Compound,MIC (Staphylococcus aureus; [5]),MIC (Staphylococcus aureus; [6]),MIC ([1]; 22 hrs),MIC ([1]; 48 hrs),MIC ([2]; 22 hrs),MIC ([2]; 48 hrs),MIC (MRSA EMRSA 15 21268/98; 22 hrs),MIC (MRSA EMRSA 15 21268/98; 48 hrs),MIC (MRSA EMRSA 16 03732/95; 22 hrs),MIC (MRSA EMRSA 16 03732/95; 48 hrs),MIC (MRSA EMRSA 16 00036/95; 22 hrs),MIC (MRSA EMRSA 16 00036/95; 48 hrs),MIC (MRSA EMRSA 16 00998/95; 22 hrs),MIC (MRSA EMRSA 16 00998/95; 48 hrs),MIC (MRSA EMRSA 16 18200/95; 22 hrs),MIC (MRSA EMRSA 16 18200/95; 48 hrs),MIC [3],MIC [4],further results
"CCCCCCCCCCCCCCCCO [C0, 1-Hexadecanol, reference compound]",> 880 µM,> 880 µM,,,,,,,,,,,,,,,,,
"CCCCCCCCCCCCCOCCOCCOCCOCCOCCOCCO [C13E6, polyoxyethylene (6) tridecyl alcohol]",,,,,,,,,,,,,,,,,,,MIC (Staphylococcus aureus; 22 hrs): 110 µM; MIC (Staphylococcus aureus; 48 hrs): 110 µM
"CCCCCCCCCCCCOCCO [L1, Ethylene Glycol Monododecyl Ether]",220 µM,220 µM,220 µM,220 µM,440 µM,440 µM,220 µM,220 µM,220 µM,220 µM,220 µM,220 µM,220 µM,220 µM,220 µM,220 µM,≤ 440 µM,,"MIC (%) volume/volume (Gram-negative species; Acinetobacter baumannii 19606): 1 % volume/volume; MIC (%) volume/volume (Gram-negative species; Escherichia coli 10418): 0.25 % volume/volume; MIC (%) volume/volume (Gram-negative species; Klebsiella pneumoniae 9528): 0.5 % volume/volume; activity against selected Gram-negative species (Gram-negative species; at higher concentrations, 10000 cfu/spot): shows activity"
"CCCCCCCCCCCCOCCOCCO [L2, Diethylene Glycol Monododecyl Ether]",110 µM,110 µM,220 µM,220 µM,220 µM,220 µM,110 µM,110 µM,110 µM,110 µM,110 µM,110 µM,110 µM,110 µM,110 µM,110 µM,≤ 440 µM,,
"CCCCCCCCCCCCOCCOCCOCCO [L3, Triethylene Glycol Monododecyl Ether]",≤ 50 µM,≤ 50 µM,440 µM,440 µM,220 µM,220 µM,110 µM,110 µM,110 µM,110 µM,55 µM,55 µM,55 µM,55 µM,110 µM,110 µM,≤ 440 µM,,
"CCCCCCCCCCCCOCCOCCOCCOCCO [L4, Tetraethylene Glycol Monododecyl Ether]",110 µM,110 µM,220 µM,220 µM,220 µM,220 µM,55 µM,55 µM,110 µM,110 µM,55 µM,55 µM,55 µM,55 µM,55 µM,55 µM,≤ 440 µM,~55 µM,MIC (%) volume/volume (Gram-negative species; Acinetobacter baumannii 19606): >4 % volume/volume; MIC (%) volume/volume (Gram-negative species; Escherichia coli 10418): >4 % volume/volume; MIC (%) volume/volume (Gram-negative species; Klebsiella pneumoniae 9528): >4 % volume/volume
"CCCCCCCCCCCCOCCOCCOCCOCCOCCO [L5, Pentaethylene Glycol Monododecyl Ether]",110 µM,110 µM,220 µM,220 µM,220 µM,220 µM,110 µM,110 µM,110 µM,110 µM,110 µM,110 µM,110 µM,110 µM,110 µM,110 µM,≤ 440 µM,,
"CCCCCCCCCCCCOCCOCCOCCOCCOCCOCCO [L6, Hexaethylene Glycol Monododecyl Ether]",110 µM,110 µM,> 880 µM,> 880 µM,> 880 µM,> 880 µM,110 µM,110 µM,220 µM,220 µM,220 µM,440 µM,220 µM,440 µM,110 µM,220 µM,,,
"CCCCCCCCCCCCOCCOCCOCCOCCOCCOCCOCCO [L7, Heptaethylene Glycol Monododecyl Ether]",,,> 880 µM,> 880 µM,> 880 µM,> 880 µM,> 440 µM,> 440 µM,> 440 µM,> 440 µM,440 µM,> 440 µM,> 440 µM,> 440 µM,220 µM,> 440 µM,,~440 µM,"MIC (Staphylococcus aureus; 22 hrs, read-out: MIC): 110 µM; MIC (Staphylococcus aureus; 48 hrs, read-out: MIC): 110 µM"
"CCCCCCCCCCCCOCCOCCOCCOCCOCCOCCOCCOCCO [L8, Octaethylene Glycol Monododecyl Ether]",110 µM,110 µM,> 880 µM,> 880 µM,880 µM,> 880 µM,> 440 µM,> 440 µM,> 440 µM,> 440 µM,> 440 µM,> 440 µM,> 440 µM,> 440 µM,> 440 µM,> 440 µM,,~440 µM,
